# From PubChem BioAssay (NCI)
#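 Following 48 hours of exposure in 96-well plates, responses at five concentrations were used to interpolate endpoints linearly. Definition used: TGI = concentration required for complete inhibition of growth.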
# Tested on: SW-620 colon
# Test: NCI-60 cell line screen, 48 h
row,SMILES,TGI [µM]
1,CN=NN(C)C(=O)NC,> 100
2,N#CC(NNC(=O)Cc1ccccc1)c1ccccc1O (stereo unspecified),> 100
3,COc1cccc(OC)c1/C=C1\OC(=O)c2cccc(OC)c21,> 100

# Tested on: A498 renal
# Test: NCI-60 cell line screen, 48 h
row,SMILES,TGI [µM]
1,CN(Nc1cc(=O)[nH]c(=O)[nH]1)c1ccccc1,> 100
2,Cc1ccc(S(=O)(=O)C2=Cc3ccc(C(F)(F)F)cc3C2(O)c2cccc(C(F)(F)F)c2)cc1 (stereo unspecified),3.83
3,CC(C)=CCS(=O)c1ccccc1NC1=CC(=O)CC(C)(C)C1 (stereo unspecified),> 100
4,Cc1cn2c(=O)c3ccccc3nc2s1,> 100
5,CN=NN(C)C(=O)NC,> 100
6,N#CC(NNC(=O)Cc1ccccc1)c1ccccc1O (stereo unspecified),> 80.3
7,COc1cccc(OC)c1/C=C1\OC(=O)c2cccc(OC)c21,32.3

# Tested on: UACC-257 melanoma
# Test: NCI-60 cell line screen, 48 h
row,SMILES,TGI [µM]
1,CN(Nc1cc(=O)[nH]c(=O)[nH]1)c1ccccc1,> 100
2,Cc1ccc(S(=O)(=O)C2=Cc3ccc(C(F)(F)F)cc3C2(O)c2cccc(C(F)(F)F)c2)cc1 (stereo unspecified),3.93
3,CC(C)=CCS(=O)c1ccccc1NC1=CC(=O)CC(C)(C)C1 (stereo unspecified),> 100
4,Cc1cn2c(=O)c3ccccc3nc2s1,> 100
5,N#CC(NNC(=O)Cc1ccccc1)c1ccccc1O (stereo unspecified),> 94.3
6,COc1cccc(OC)c1/C=C1\OC(=O)c2cccc(OC)c21,> 100

# Tested on: IGROV1 ovarian
# Test: NCI-60 cell line screen, 48 h
row,SMILES,TGI [µM]
1,CN(Nc1cc(=O)[nH]c(=O)[nH]1)c1ccccc1,> 100
2,Cc1ccc(S(=O)(=O)C2=Cc3ccc(C(F)(F)F)cc3C2(O)c2cccc(C(F)(F)F)c2)cc1 (stereo unspecified),7.03
3,CC(C)=CCS(=O)c1ccccc1NC1=CC(=O)CC(C)(C)C1 (stereo unspecified),> 100
4,Cc1cn2c(=O)c3ccccc3nc2s1,> 100
5,CN=NN(C)C(=O)NC,> 100
6,N#CC(NNC(=O)Cc1ccccc1)c1ccccc1O (stereo unspecified),> 100
7,COc1cccc(OC)c1/C=C1\OC(=O)c2cccc(OC)c21,> 100

# Tested on: SF-539 CNS
# Test: NCI-60 cell line screen, 48 h
row,SMILES,TGI [µM]
1,CN(Nc1cc(=O)[nH]c(=O)[nH]1)c1ccccc1,> 100
2,Cc1ccc(S(=O)(=O)C2=Cc3ccc(C(F)(F)F)cc3C2(O)c2cccc(C(F)(F)F)c2)cc1 (stereo unspecified),3.84
3,CC(C)=CCS(=O)c1ccccc1NC1=CC(=O)CC(C)(C)C1 (stereo unspecified),> 100
4,Cc1cn2c(=O)c3ccccc3nc2s1,> 100
5,CN=NN(C)C(=O)NC,> 100
6,N#CC(NNC(=O)Cc1ccccc1)c1ccccc1O (stereo unspecified),85.1
7,COc1cccc(OC)c1/C=C1\OC(=O)c2cccc(OC)c21,6.21

# Tested on: DU-145 prostate
# Test: NCI-60 cell line screen, 48 h
row,SMILES,TGI [µM]
1,CN(Nc1cc(=O)[nH]c(=O)[nH]1)c1ccccc1,> 100
2,Cc1ccc(S(=O)(=O)C2=Cc3ccc(C(F)(F)F)cc3C2(O)c2cccc(C(F)(F)F)c2)cc1 (stereo unspecified),10.3
3,CC(C)=CCS(=O)c1ccccc1NC1=CC(=O)CC(C)(C)C1 (stereo unspecified),> 100
4,N#CC(NNC(=O)Cc1ccccc1)c1ccccc1O (stereo unspecified),> 74.6
5,COc1cccc(OC)c1/C=C1\OC(=O)c2cccc(OC)c21,> 100

# Tested on: KM20L2 colon
# Test: NCI-60 cell line screen, 48 h
row,SMILES,TGI [µM]
1,Cc1cn2c(=O)c3ccccc3nc2s1,> 100
2,CN=NN(C)C(=O)NC,> 100

# Tested on: SF-268 CNS
# Test: NCI-60 cell line screen, 48 h
row,SMILES,TGI [µM]
1,CN(Nc1cc(=O)[nH]c(=O)[nH]1)c1ccccc1,> 100
2,Cc1ccc(S(=O)(=O)C2=Cc3ccc(C(F)(F)F)cc3C2(O)c2cccc(C(F)(F)F)c2)cc1 (stereo unspecified),8.65
3,CC(C)=CCS(=O)c1ccccc1NC1=CC(=O)CC(C)(C)C1 (stereo unspecified),> 100
4,Cc1cn2c(=O)c3ccccc3nc2s1,> 100
5,CN=NN(C)C(=O)NC,> 100
6,N#CC(NNC(=O)Cc1ccccc1)c1ccccc1O (stereo unspecified),98.7
7,COc1cccc(OC)c1/C=C1\OC(=O)c2cccc(OC)c21,> 100

# Tested on: 786-0 renal
# Test: NCI-60 cell line screen, 48 h
row,SMILES,TGI [µM]
1,CN(Nc1cc(=O)[nH]c(=O)[nH]1)c1ccccc1,> 100
2,Cc1ccc(S(=O)(=O)C2=Cc3ccc(C(F)(F)F)cc3C2(O)c2cccc(C(F)(F)F)c2)cc1 (stereo unspecified),3.96
3,CC(C)=CCS(=O)c1ccccc1NC1=CC(=O)CC(C)(C)C1 (stereo unspecified),> 100
4,Cc1cn2c(=O)c3ccccc3nc2s1,> 100
5,CN=NN(C)C(=O)NC,> 100
6,N#CC(NNC(=O)Cc1ccccc1)c1ccccc1O (stereo unspecified),72.5
7,COc1cccc(OC)c1/C=C1\OC(=O)c2cccc(OC)c21,> 100

# Tested on: NCI-H460 lung
# Test: NCI-60 cell line screen, 48 h
row,SMILES,TGI [µM]
1,CN(Nc1cc(=O)[nH]c(=O)[nH]1)c1ccccc1,> 100
2,Cc1ccc(S(=O)(=O)C2=Cc3ccc(C(F)(F)F)cc3C2(O)c2cccc(C(F)(F)F)c2)cc1 (stereo unspecified),6.9
3,CC(C)=CCS(=O)c1ccccc1NC1=CC(=O)CC(C)(C)C1 (stereo unspecified),> 100
4,Cc1cn2c(=O)c3ccccc3nc2s1,> 100
5,CN=NN(C)C(=O)NC,> 100
6,N#CC(NNC(=O)Cc1ccccc1)c1ccccc1O (stereo unspecified),> 100
7,COc1cccc(OC)c1/C=C1\OC(=O)c2cccc(OC)c21,> 100

# Tested on: SR leukemia
# Test: NCI-60 cell line screen, 48 h
row,SMILES,TGI [µM]
1,CN(Nc1cc(=O)[nH]c(=O)[nH]1)c1ccccc1,> 100
2,Cc1ccc(S(=O)(=O)C2=Cc3ccc(C(F)(F)F)cc3C2(O)c2cccc(C(F)(F)F)c2)cc1 (stereo unspecified),8.14
3,CC(C)=CCS(=O)c1ccccc1NC1=CC(=O)CC(C)(C)C1 (stereo unspecified),> 100
4,Cc1cn2c(=O)c3ccccc3nc2s1,> 100
5,CN=NN(C)C(=O)NC,> 100
6,N#CC(NNC(=O)Cc1ccccc1)c1ccccc1O (stereo unspecified),70.7
7,COc1cccc(OC)c1/C=C1\OC(=O)c2cccc(OC)c21,> 24.3

# Tested on: MDA-N
# Test: NCI-60 cell line screen, 48 h
row,SMILES,TGI [µM]
1,CN(Nc1cc(=O)[nH]c(=O)[nH]1)c1ccccc1,> 100
2,Cc1ccc(S(=O)(=O)C2=Cc3ccc(C(F)(F)F)cc3C2(O)c2cccc(C(F)(F)F)c2)cc1 (stereo unspecified),5.88
3,CC(C)=CCS(=O)c1ccccc1NC1=CC(=O)CC(C)(C)C1 (stereo unspecified),> 100
4,N#CC(NNC(=O)Cc1ccccc1)c1ccccc1O (stereo unspecified),> 100
5,COc1cccc(OC)c1/C=C1\OC(=O)c2cccc(OC)c21,3.32

# Tested on: HOP-18 NSCLC
# Test: NCI-60 cell line screen, 48 h
row,SMILES,TGI [µM]
1,CN=NN(C)C(=O)NC,> 100
2,N#CC(NNC(=O)Cc1ccccc1)c1ccccc1O (stereo unspecified),74.9

# Tested on: SNB-75 CNS
# Test: NCI-60 cell line screen, 48 h
row,SMILES,TGI [µM]
1,CN(Nc1cc(=O)[nH]c(=O)[nH]1)c1ccccc1,> 100
2,Cc1ccc(S(=O)(=O)C2=Cc3ccc(C(F)(F)F)cc3C2(O)c2cccc(C(F)(F)F)c2)cc1 (stereo unspecified),13.9
3,CC(C)=CCS(=O)c1ccccc1NC1=CC(=O)CC(C)(C)C1 (stereo unspecified),> 100
4,Cc1cn2c(=O)c3ccccc3nc2s1,> 100
5,CN=NN(C)C(=O)NC,> 100
6,N#CC(NNC(=O)Cc1ccccc1)c1ccccc1O (stereo unspecified),85.6
7,COc1cccc(OC)c1/C=C1\OC(=O)c2cccc(OC)c21,17.9

# Tested on: HL-60(TB) leukemia
# Test: NCI-60 cell line screen, 48 h
row,SMILES,TGI [µM]
1,CN(Nc1cc(=O)[nH]c(=O)[nH]1)c1ccccc1,> 100
2,Cc1ccc(S(=O)(=O)C2=Cc3ccc(C(F)(F)F)cc3C2(O)c2cccc(C(F)(F)F)c2)cc1 (stereo unspecified),3.66
3,CC(C)=CCS(=O)c1ccccc1NC1=CC(=O)CC(C)(C)C1 (stereo unspecified),> 100
4,Cc1cn2c(=O)c3ccccc3nc2s1,> 100
5,CN=NN(C)C(=O)NC,> 100
6,N#CC(NNC(=O)Cc1ccccc1)c1ccccc1O (stereo unspecified),36
7,COc1cccc(OC)c1/C=C1\OC(=O)c2cccc(OC)c21,> 19.7

# Tested on: UO-31 renal
# Test: NCI-60 cell line screen, 48 h
row,SMILES,TGI [µM]
1,CN(Nc1cc(=O)[nH]c(=O)[nH]1)c1ccccc1,> 100
2,Cc1ccc(S(=O)(=O)C2=Cc3ccc(C(F)(F)F)cc3C2(O)c2cccc(C(F)(F)F)c2)cc1 (stereo unspecified),6.11
3,CC(C)=CCS(=O)c1ccccc1NC1=CC(=O)CC(C)(C)C1 (stereo unspecified),> 100
4,Cc1cn2c(=O)c3ccccc3nc2s1,> 100
5,CN=NN(C)C(=O)NC,> 100
6,N#CC(NNC(=O)Cc1ccccc1)c1ccccc1O (stereo unspecified),25.4
7,COc1cccc(OC)c1/C=C1\OC(=O)c2cccc(OC)c21,> 100

# Tested on: MOLT-4 leukemia
# Test: NCI-60 cell line screen, 48 h
row,SMILES,TGI [µM]
1,CN(Nc1cc(=O)[nH]c(=O)[nH]1)c1ccccc1,> 100
2,Cc1ccc(S(=O)(=O)C2=Cc3ccc(C(F)(F)F)cc3C2(O)c2cccc(C(F)(F)F)c2)cc1 (stereo unspecified),> 22.6
3,CC(C)=CCS(=O)c1ccccc1NC1=CC(=O)CC(C)(C)C1 (stereo unspecified),> 100
4,Cc1cn2c(=O)c3ccccc3nc2s1,> 100
5,CN=NN(C)C(=O)NC,> 100
6,N#CC(NNC(=O)Cc1ccccc1)c1ccccc1O (stereo unspecified),> 100
7,COc1cccc(OC)c1/C=C1\OC(=O)c2cccc(OC)c21,> 100

# Tested on: DLD-1 colon
# Test: NCI-60 cell line screen, 48 h
row,SMILES,TGI [µM]
1,Cc1cn2c(=O)c3ccccc3nc2s1,> 100
